This is an account of results in patent US20120251492A1, “TRITERPENE DERIVATIVE AND AGENT FOR PREVENTING OR TREATING CHRONIC HEPATITIS C” (MEIJI SEIKA PHARMA CO., LTD., priority 2009, published 2012).

In data set [1] the test system is HCV (Con1 Strain) replicon. Nature of the data set: microbe, parasite or virus in culture. In kind it is cell-based, hepatitis C virus (HCV) Con1 strain, in Huh7 cells. The settings on record: read-out: IC50 Value (50% growth inhibitory concentration). An excerpt: The compounds represented by the formula (I) were subjected to an HCV replicon assay and a cytotoxicity test.
In order to quantify the degree of HCV virus proliferation, a material was constructed by introducing a luciferase gene as a reporter gene into the genomic gene sequence of HCV Cont strain. The luciferase gene was introduced in the form of fusion with a neomycin-resistant gene, immediately after the IRES (Internal Ribosome Entry Site) of the HCV gene according to the method of Krieger et al., (J. Virol. 75: 4614 (2001)). The constructed RNA was introduced into Huh7 cells by electroporation, and isolated as G418 resistant clone.
The HCV replicon cells comprising the luciferase gene and the neomycin resistance gene were suspended in a culture liquid [D-MEM (SIGMA, D6046) containing 10% of fetal bovine serum (EQUITECH-BIO, INC.)], and seeded onto 96-well plates at 5000 to 8100 cells/well. Test compounds were added at various concentrations, and the cells were cultured under 5% CO2 at 37° C. for 3 days. For adding the test compounds, solutions of the test compounds dissolved in dimethyl sulfoxide (DMSO) were used, and diluted with the culture liquid to appropriate concentrations before use. The experiment was conducted with the final concentrations of DMSO used for dissolving the test compounds being 0.4% during the culturing of the replicon cells. To wells to which no test compound was added, DMSO was added with a final concentration of 0.4%.
Assay plates were prepared for two systems; one of the assays was conducted on a white plate, and the other was conducted on a clear plate. After the culturing for treatments with the test compounds was completed, the white plate was subjected to chemiluminescence measurement by using a Steady-Glo Luciferase Assay System (Promega, E2520) in order to detect effects on HCV replicon proliferation. A EnVision multilabel counter (PerkinElmer 2102) was used for the chemiluminescence measurement. While the value obtained when no test compound was added was taken as 0% inhibition, the inhibitory ratios by the treatments with the agents were calculated.
Regarding the HCV replicon assay, IC50s (50% growth inhibitory concentrations) of the agents were calculated, with the value obtained when no agent was added being taken as 0% inhibition.

The nature of data set [2]: Pharmacokinetics study in mice. In kind it is in vivo. The note with it: Balb/c mice, male, oral 20 mg/kg suspended in olive oil, LC-MS/MS; for AUC / Cmax / half-life: mouse, plasma; for AUC: read-out: AUC (area under the plasma drug concentration-time curve); for Cmax: read-out: Cmax (maximum plasma concentration); for half-life: read-out: t1/2 (plasma half-life) (converted). The method, then: Balb/c mice (male, 7 to 8-week old) were used (3 or more mice per group). Each test compound suspended in olive oil was orally administered at 20 mg/kg, and blood was collected from the jugular vein after 2, 6, and 24 hours, or after 2, 4, 6, 8, 24, and 48 hours. The plasma drug concentration was measured by using a liquid chromatograph/mass spectrometry/mass spectrometry (LC-MS/MS). In addition, pharmacokinetics parameters were obtained from change in the obtained plasma concentration.

Where [3] appears, read: Hepatitis C virus, Huh-7, 72 h, HCV replicon cells (Huh7) with luciferase gene, cultured 3 days with test compound, 0.4% DMSO.

Read-outs that look alike come from different tables or passages of the source.

On to `CC1(C)C[C@@H](OCc2ccc(C(=O)O)cc2)[C@]2(C)CC[C@]3(C)C(=CCC4[C@@]5(C)CC[C@H](O)[C@](C)(CO)C5CC[C@]43C)[C@@H]2C1` (stereo partly drawn) [Compound 1, 22β-(4-carboxybenzyloxy)olean-12-ene-3β,24-diol], for which the IC50 in data set [1] (setting [3]) was determined as 13.5 µM.

In the case of `C#CCO[C@@H]1CC(C)(C)C[C@H]2C3=CCC4[C@@]5(C)CC[C@H](O)[C@](C)(CO)C5CC[C@@]4(C)[C@]3(C)CC[C@@]12C` (stereo partly drawn) [Compound 2, 22β-(2-propynyloxy)olean-12-ene-3β,24-diol], in data set [2], the AUC was found to be 44.7 ± 16.3 µg·h/mL, the Cmax came to 2.8 ± 1 µg/mL and the half-life is 10 ± 1.2 h. The IC50 in data set [1] (setting [3]) is 5.73 µM.

`CC1(C)C[C@@H](OCc2ccc(CO)cc2)[C@]2(C)CC[C@]3(C)C(=CCC4[C@@]5(C)CC[C@H](O)[C@](C)(CO)C5CC[C@]43C)[C@@H]2C1` (stereo partly drawn) [Compound 3, 22β-(4-hydroxymethylbenzyloxy)olean-12-ene-3β,24-diol]: the IC50 in data set [1] (Hepatitis C virus, Huh-7, 72 h) amounted to 1.56 µM.

Regarding `CC1(C)C[C@@H](OCc2ccc(C=O)cc2)[C@]2(C)CC[C@]3(C)C(=CCC4[C@@]5(C)CC[C@H](O)[C@](C)(CO)C5CC[C@]43C)[C@@H]2C1` (stereo partly drawn) [Compound 4, 22β-(4-formylbenzyloxy)olean-12-ene-3β,24-diol], the IC50 in data set [1] (setting [3]) is 3.59 µM.

Consider `CC1(C)C[C@@H](OCCCO)[C@]2(C)CC[C@]3(C)C(=CCC4[C@@]5(C)CC[C@H](O)[C@](C)(CO)C5CC[C@]43C)[C@@H]2C1` (stereo partly drawn) [Compound 7, 22β-(3-hydroxypropoxy)olean-12-ene-3β,24-diol], for which, in data set [1] (setting [3]), the IC50 amounted to 5.32 µM.

As for `CC1(C)C[C@@H](OCCCOc2ccc(C(=O)O)cc2)[C@]2(C)CC[C@]3(C)C(=CCC4[C@@]5(C)CC[C@H](O)[C@](C)(CO)C5CC[C@]43C)[C@@H]2C1` (stereo partly drawn) [Compound 8, 22β-(3-(4-carboxyphenyl)oxypropoxy)olean-12-ene-3β,24-diol], the IC50 in data set [1] (setting [3]) amounted to 6.99 µM.

In the case of `CC1(C)C[C@@H](OCc2ccc(CN3CCOCC3)cc2)[C@]2(C)CC[C@]3(C)C(=CCC4[C@@]5(C)CC[C@H](O)[C@](C)(CO)C5CC[C@]43C)[C@@H]2C1` (stereo partly drawn) [Compound 9, 22β-(4-(4-morpholylmethyl)benzyloxy)olean-12-ene-3β,24-diol], the IC50 in data set [1] (setting [3]) worked out at 9.13 µM.

Take `CN(C)Cc1ccc(CO[C@@H]2CC(C)(C)C[C@H]3C4=CCC5[C@@]6(C)CC[C@H](O)[C@](C)(CO)C6CC[C@@]5(C)[C@]4(C)CC[C@@]23C)cc1` (stereo partly drawn) [Compound 10, 22β-(4-dimethylaminomethylbenzyloxy)olean-12-ene-3β,24-diol]: the IC50 in data set [1] (setting [3]) was determined as 3.68 µM.

For `CC1(C)C[C@@H](OCc2ccc(CNc3ccccc3)cc2)[C@]2(C)CC[C@]3(C)C(=CCC4[C@@]5(C)CC[C@H](O)[C@](C)(CO)C5CC[C@]43C)[C@@H]2C1` (stereo partly drawn) [Compound 11, 22β-(4-phenylaminomethylbenzyloxy)olean-12-ene-3β,24-diol], the IC50 in data set [1] (setting [3]) is 13 µM.

For `CC1(C)C[C@@H](OCc2ccccc2)[C@]2(C)CC[C@]3(C)C(=CCC4[C@@]5(C)CC[C@H](O)[C@](C)(C(=O)O)C5CC[C@]43C)[C@@H]2C1` (stereo partly drawn) [Compound 12, 22β-benzyloxyolean-12-ene-3β-hydroxy-24-oic acid], in data set [2], the AUC was 74.7 ± 11 µg·h/mL, the Cmax came out at 4.8 ± 1.1 µg/mL and the half-life is 11.9 ± 2.7 h. In addition, in data set [1] (setting [3]), the IC50 came to 5.54 µM.

Turning to `C=CCO[C@@H]1CC(C)(C)C[C@H]2C3=CCC4[C@@]5(C)CC[C@H](O)[C@](C)(C(=O)O)C5CC[C@@]4(C)[C@]3(C)CC[C@@]12C` (stereo partly drawn) [Compound 13, 22β-allyloxyolean-12-ene-3β-hydroxy-24-oic acid], in data set [2], the AUC is 74.9 ± 16.3 µg·h/mL, the Cmax amounted to 4.8 ± 1.5 µg/mL and the half-life was 13 ± 5.5 h. Also, the IC50 in data set [1] (setting [3]) amounted to 7.05 µM.

With `CO[C@@H]1CC(C)(C)CC2C3=CCC4[C@@]5(C)CC[C@H](O)[C@](C)(C(=O)O)C5CC[C@@]4(C)[C@]3(C)CC[C@]21C` (stereo partly drawn) [Compound 14, 3β-hydroxy-22β-methoxyolean-12-en-24-oic acid], in data set [2], the AUC is 81.1 ± 18.3 µg·h/mL, the Cmax came out at 4.8 ± 1.1 µg/mL and the half-life is 13.9 ± 1 h. In data set [1] (setting [3]), the IC50 came to 5.57 µM.

Regarding `CO[C@@H]1CC(C)(C)C[C@H]2C3=CC[C@@H]4[C@@]5(C)CC[C@H](O)[C@](C)(CO)[C@@H]5CC[C@@]4(C)[C@]3(C)CC[C@@]12C` [Compound 17, 22β-methoxyolean-12-ene-3β,24-diol, reference compound], in data set [2], the “AUC (area under the plasma drug concentration-time curve)” value came out at 35.6 ± 9.7 µg·h/mL, the “Cmax (maximum plasma concentration)” value was found to be 2.6 ± 0.7 µg/mL and the “t1/2 (plasma half-life)” value was 7.4 ± 0.4 h. Further, in data set [1] (HCV replicon cells (Huh7) with luciferase gene, cultured 3 days with test compound, 0.4% DMSO), the IC50 is above 20 µM.
